These results are taken from patent US5554653A, “Inhibitors of HIV protease useful for the treatment of AIDS” (Eli Lilly and Company, priority 1992, dated 1996).

Each structure is given as a SMILES string.

For this assay, the target named is T1, HIV-1 protease (Human immunodeficiency virus type 1 group M subtype B, UniProt P04585).
T1 construct: Purified HIV-1 protease was obtained as described above; made in house; host or cells: E. coli K12 L507/pHP10D (NRRL B-18560)
As to the kind of experiment: biochemical. The format is biochemical. To be noted: read-out: Fluorescence Assay IC50 (converted).

Consider `CC(C)(C)NC(=O)c1ccccc1C[C@@H](O)[C@H](Cc1ccccc1)NC(=O)[C@@H](CSc1ccc(F)cc1)NS(C)(=O)=O` [Example 37C, [2R-(2R*,3S*,6S*)]-N-t-Butyl-2-[2-hydroxy-3-phenylmethyl-4-aza-5-oxo-6-N(methylsulfonyl)amino-7-(p-fluorophenylthio)]heptyl benzamide], for which the IC50 was 1.79 nM.

With `CC(C)(C)NC(=O)c1ccccc1C[C@@H](O)[C@H](Cc1ccccc1)NC(=O)[C@@H](CS(=O)(=O)c1ccccc1)NS(C)(=O)=O` [Example 22D, [2R-(2R*,3S*,6S*)]-N-t-Butyl-2-[2-hydroxy-3-phenylmethyl-4-aza-5-oxo-6-N(methylsulfonyl)amino-7-phenylsulfonyl]heptyl benzamide], the IC50 was 2.54 nM.

On to `CC(C)(C)NC(=O)c1ccccc1C[C@@H](O)[C@H](Cc1ccccc1)NC(=O)[C@@H](C[S+]([O-])c1ccc2ccccc2n1)NS(C)(=O)=O` (stereo partly drawn) [Example 23E, [2R-(2R*,3S*,6S*)]-N-t-Butyl-2-[2-hydroxy-3-phenylmethyl-4-aza-5-oxo-6-N(methylsulfonyl)amino-7-quinolin-2-ylsulfinyl]heptyl benzamide], for which the IC50 was 4.06 nM.

Turning to `CC(=O)N[C@H](CC(=O)NCc1ccccc1)C(=O)N[C@@H](Cc1ccccc1)[C@H](O)Cc1ccccc1C(=O)NC(C)(C)C` [Example 4, [2R-(2R*, 3S*, 6R *]-N-t-butyl-2-[2-hydroxy-3-phenylmethyl-4-aza-5-oxo-6-N (ethanoyl)amino-8-oxo-9-aza-10-phenyl]decylbenzamide], the IC50 was 341 nM.
